For 52 compounds, IC50 results are on record in patent US20250214977A1, “STAT6 INHIBITORS AND USES THEREOF” (Kymera Therapeutics, Inc., priority 2024, published 2025).

The subject of the assay is Phosphorylation of STAT6 in human A549 cells. The assay can be described thus: Phosphorylated STAT6 (pSTAT6) flow cytometry assay in human A549 cells. The format is cell-based. The settings on record: read-out: STAT6 IL4 pSTAT6 assay in A549 cells: Average IC50. The source says: Example 3. Phosphorylated STAT6 (pSTAT6) Flow Cytometry Assay in Human A549 Cells
Phosphorylation of STAT6 in human A549 cells was quantitatively measured using flow cytometry technology.

One may read the IC50 as the point on the concentration scale where inhibition reaches its midpoint.

Regarding `CCC/C=C/c1cc(C2=CCCN(C(=O)CCn3ccnn3)C2)c(F)c2[nH]c(C(=O)N3CCN(c4ncc(F)cc4OC)CC3)cc12` [Example I-677], the IC50 is below 100 nM.
Next, `COc1ccccc1-c1cc(C2=CCCN(C(=O)CCn3ccnn3)C2)c(F)c2[nH]c(C(=O)N3CCN(c4ncccc4F)CC3)cc12` [Example I-361]: below 100 nM.
Turning to `CNc1ccc(-c2cc(C3=CCCN(C(=O)C4Cc5c(N)cccc5CN4C=O)C3)cc3cc(C(=O)N(C)C)oc23)c(OC)c1` (stereo not shown) [Example I-1063], the 50% inhibitory concentration (IC50) was below 100 nM.
With `COc1ccccc1-c1cc(C2=CCCN(C(=O)CCn3ccnn3)C2)c(F)c2[nH]c(C(=O)N3CCc4n[nH]cc4C3)cc12` [Example I-851], the IC50 was below 100 nM.
Next, `COc1cc(F)cnc1N1CCN(C(=O)c2cc3c(-c4ccnc(N5CCOCC5)c4)cc(C4=CCCN(C(=O)CCn5ccnn5)C4)c(F)c3[nH]2)CC1` [Example I-680]: below 100 nM.
Next, `CC(=O)N1CCC=C(c2cc(-c3ccc(C)nc3)c3cc(C(=O)N(C)C)[nH]c3c2F)C1` [Example I-885]: 100 to 1000 nM.
With `COc1ccncc1-c1cc(C2=CCCN(C(=O)CCn3ccnn3)C2)c(F)c2[nH]c(C(=O)N3CCN(c4cccnc4C#N)CC3)cc12` [Example I-493], the 50% inhibitory concentration (IC50) was above 100000 nM.
As for `COc1ccccc1-c1cc(C2=CCCN(C(=O)CCn3ccnn3)C2)c(F)c2[nH]c(C(=O)N3CCN(c4ncc(N5CCCCC5)cc4OC4CC4)CC3)cc12` [Example I-961], the figure is below 100 nM.
As for `COc1ccccc1-c1cc(C2=CCCN(C(=O)CCn3ccnn3)C2)c(F)c2[nH]c(C(=O)N3CCN(c4ccn5nc(C)nc5c4)CC3)cc12` [Example I-919], the figure is below 100 nM; as for `COc1cnccc1-c1cc(C2=CCCN(C(C)=O)C2)c(F)c2[nH]c(C(=O)N3CCN(c4ncccc4OC)CC3)cc12` [Example I-408], above 100000 nM; as for `CN(C)C(=O)c1cc2cc(C3=CCCN(C(=O)CCn4ccnn4)C3)cc(NCc3ccc(C#N)cc3)c2o1` [Example I-895], below 100 nM.
As for `COc1cccnc1N1CCN(C(=O)c2cc3c(-c4cccnc4OC)cc(C4=CCCN(C(=O)CCn5ccnn5)C4)c(F)c3[nH]2)CC1` [Example I-410], the figure is above 100000 nM.
Take `COc1ccccc1-c1cc(C2=CCCN(C(=O)CCn3ccnn3)C2)c(F)c2[nH]c(C(=O)N3CCN(c4cccn(C)c4=O)CC3)cc12` [Example I-1021]: the IC50 is below 100 nM.
As for `CCn1c(N2CCN(C(=O)c3cc4c(-c5ccccc5OC)cc(C5=CCCN(C(=O)CCn6ccnn6)C5)c(F)c4[nH]3)CC2)cc2ccccc21` [Example I-967], the figure is 100 to 1000 nM.
Take `COc1cc(N(C)C)ccc1-c1cc(C2=CCCN(C(=O)CCn3ccnn3)C2)c(F)c2[nH]c(C(=O)N3CCN(c4ncccc4OC4CC4)CC3)cc12` [Example I-609]: the IC50 is below 100 nM.
Next, `COc1ccncc1-c1cc(C2=CCCN(C(=O)CCn3ccnn3)C2)c(F)c2[nH]c(C(=O)N3CCN(c4ccccc4OC)CC3)cc12` [Example I-565]: below 100 nM; `CCc1nc(C)ccc1-c1cc(C(=O)N2CCN(c3ncc(F)cc3OC)CC2)cc2cc(C3=CCCN(C(=O)CC(=O)O)C3)n(CC)c12` [Example I-794]: below 100 nM.
Next, `CCc1nc(C)ccc1-c1cc(C(=O)N2CCN(c3ncc(F)cc3OC)CC2)cc2cc(C3=CCCN(C(=O)CCc4nccs4)C3)n(CC3CC3)c12` [Example I-523]: below 100 nM; `COc1ccccc1-c1cc(C2=CCCN(C(=O)CCn3ccnn3)C2)c(F)c2[nH]c(C(=O)N3CCN(c4ncnc5ncn(C)c45)CC3)cc12` [Example I-920]: below 100 nM; `COc1cc(F)cnc1N1CCN(C(=O)c2cc3c(-c4ccc(C(C)N5CCOCC5)cc4)cc(C4=CCCN(C(=O)CCn5ccnn5)C4)c(F)c3[nH]2)CC1` (stereo not shown) [Example I-1121]: below 100 nM.
As for `CCOc1cc(-c2cc(C3=CCCN(C(=O)CCn4ccnn4)C3)c(F)c3[nH]c(C(=O)N4CCN(c5ncc(F)cc5OC)CC4)cc23)cc(F)c1F` [Example I-642], the figure is 100 to 1000 nM.
Consider `COc1ccccc1-c1cc(C2=CCCN(C(=O)CCn3ccnn3)C2)c(F)c2[nH]c(C(=O)N3CCN(c4cccc(=O)n4C)CC3)cc12` [Example I-1020], for which the IC50 was below 100 nM.
In the case of `COc1ccccc1-c1cc(C2=CCCN(C(=O)CCn3ccnn3)C2)c(F)c2[nH]c(C(=O)N3CCN(c4ccc(=O)[nH]c4C)CC3)cc12` [Example I-1022], the IC50 is below 100 nM.
Next, `COc1ccccc1-c1cc(C2=CCCN(C(=O)C3Cc4ccccc4CN3C=O)C2)cc2cc(C(=O)N(C)C)oc12` (stereo not shown) [Example I-838]: below 100 nM; `COc1cccc(F)c1-c1cc(C2=CCCN(C(C)=O)C2)c(F)c2cc(C(=O)N(C)C)oc12` [Example I-1105]: 100 to 1000 nM; `COc1cc(F)cnc1N1CCN(C(=O)c2cc3c(C4=CCC(N5CCOCC5)CC4)cc(C4=CCCN(C(=O)CCn5ccnn5)C4)c(F)c3[nH]2)CC1` (stereo not shown) [Example I-1153]: below 100 nM.
Next, “(1S)-3-[4-(4-ethyl-3-pyridyl)-7-fluoro-2-[4-(5-fluoro-3-methoxy-2-pyridyl)piperazine-1-carbonyl]-1H-indol-6-yl]cyclohex-3-ene-1-carboxylic acid [Example I-809]”: below 100 nM; `CCc1cc(CC)c(-c2cc(C3=CCCN(C(=O)CCn4cccn4)C3)c(F)c3[nH]c(C(=O)N4CCN(c5nc(C)c(F)cc5OC)CC4)cc23)cn1` [Example I-741]: 100 to 1000 nM; `COc1cccc(N2CCN(C(=O)c3cc4c(-c5ccccc5OC)cc(C5=CCCN(C(=O)CCn6ccnn6)C5)c(F)c4[nH]3)CC2)n1` [Example I-359]: below 100 nM.
On to `CCn1ncc2c1CN(C(=O)c1cc3c(-c4ccncc4OC)cc(C4=CCCN(C(C)=O)C4)c(F)c3[nH]1)C2` [Example I-715], for which the half-maximal inhibitory concentration (IC50) is 10000 to 100000 nM.
Next, `CCC1=C(c2cc(C3=CCCN(C(=O)CCn4ccnn4)C3)c(F)c3[nH]c(C(=O)N4CCN(c5ncc(F)cc5OC)CC4)cc23)CNCC1` [Example I-743]: below 100 nM.
Take `CCc1ccc(-c2cc(C(=O)N3Cc4cnn(CC)c4C3)cc3cc(C4=CCCN(C(C)=O)C4)n(CC4CC4)c23)c(C)n1` [Example I-1046]: the IC50 was in the range of 100 to 1000 nM.
As for `CCc1ccncc1-c1cc(C2=CCCN(C(=O)CCn3cccn3)C2)c(F)c2[nH]c(C(=O)N3CCN(c4ncc(F)cc4OC)CC3)cc12` [Example I-686], the IC50 was below 100 nM.
In the case of `COc1ccccc1-c1cc(C2=CCCN(C(=O)CCn3ccnn3)C2)c(F)c2[nH]c(C(=O)N3CCC4CC43)cc12` (stereo not shown) [Example I-1011], the IC50 was below 100 nM.
As for `COc1cccnc1N1CCN(C(=O)c2cc3c(-c4cccc5c4OC(F)(F)O5)cc(C4=CCCN(C(=O)CCn5ccnn5)C4)c(F)c3[nH]2)CC1` [Example I-690], the figure is below 100 nM; as for `CCOc1ccncc1-c1cc(C2=CCCN(C(=O)CCn3ccnn3)C2)c(F)c2[nH]c(C(=O)N3CCN(c4cnc(C)nc4OC)CC3)cc12` [Example I-1036], below 100 nM.
As to `COc1ccccc1-c1cc(C2=CCCN(C(=O)CCn3ccnn3)C2)c(F)c2[nH]c(C(=O)N3CCN(c4cc(O)cc5ccccc45)CC3)cc12` [Example I-930], the IC50 lay within 100 to 1000 nM.
Next, `COc1ccccc1-c1cc(C2=CCCN(C(=O)CCn3ccnn3)C2)c(F)c2[nH]c(C(=O)N3CCN(c4ccccc4Cl)CC3)cc12` [Example I-423]: below 100 nM; `CN(C)C(=O)c1cc2c(F)c(C3=CCCN(C(=O)[C@H]4Cc5ccccc5CN4C=O)C3)ccc2o1` (single isomer, unassigned) [Example I-376]: above 100000 nM.
For the compound `COc1ccccc1-c1cc(C2=CCCN(C(=O)CCn3ccnn3)C2)c(F)c2[nH]c(C(=O)N3CCN(CC4CCCO4)CC3)cc12` (stereo not shown) [Example I-1184], the IC50 was below 100 nM.
Next, `CN(C)C(=O)c1cc2cc(C3=CCCN(C(=O)CCn4ccnn4)C3)cc(NCc3ccc(C(F)(F)F)nc3)c2o1` [Example I-893]: below 100 nM; `CCc1ccccc1-c1cc(C2=CCCN(C(=O)CCn3ccnn3)C2)c(F)c2[nH]c(C(=O)N3CCN(c4ncccc4OC)CC3)cc12` [Example I-562]: below 100 nM.
Next, `COc1cc(F)cnc1N1CCN(C(=O)c2cc3c(-c4cc(O)cc5ccccc45)cc(C4=CCCN(C(=O)CCn5ccnn5)C4)c(F)c3[nH]2)CC1` [Example I-659]: below 100 nM; `COc1cc(Cl)cnc1N1CCN(C(=O)c2cc3c(-c4cc(F)cc(F)c4OC)cc(C4=CCCN(C(=O)CCn5ccnn5)C4)c(F)c3[nH]2)CC1` [Example I-462]: 100 to 1000 nM.
Next, `CN(C)CCN(C)C(=O)c1cc2cc(C3=CCCN(C(=O)CCn4ccnn4)C3)ccc2o1` [Example I-844]: 100 to 1000 nM.
As for `COc1cc(C)ncc1-c1cc(C2=CCCN(C(=O)CCn3ccnn3)C2)c(F)c2[nH]c(C(=O)N3CCN(c4ncc(F)cc4OC)CC3)cc12` [Example I-667], the IC50 was above 100000 nM.
As for `COc1cc(F)cnc1N1CCN(C(=O)c2cc3c(-c4ccc5c(C)nn(C)c5c4)cc(C4=CCCN(C(=O)CCn5ccnn5)C4)c(F)c3[nH]2)CC1` [Example I-623], the figure is below 100 nM.
As for `CCc1nc(C)ccc1-c1cc(C2=CCCN(C(=O)CCn3ccnn3)C2)c(F)c2[nH]c(C(=O)N3CCN(c4ncc(F)cc4OC)CC3)cc12` [Example I-735], the IC50 was below 100 nM.
As for `COc1ccccc1-c1cc(C2=CCCN(C(=O)CCn3ccnn3)C2)c(F)c2[nH]c(C(=O)N3CCN(c4ccc5cn[nH]c5c4)CC3)cc12` [Example I-963], the figure is below 100 nM; as for `COc1ccccc1-c1cc(C2=CCCN(C(=O)CCn3ccnn3)C2)c(F)c2[nH]c(C(=O)N3CCN(c4ccc5c(c4)C=NCC5)CC3)cc12` [Example I-918], below 100 nM.
As for `CNc1ccc(-c2cc(C3=CCCN(C(=O)CCn4ccnn4)C3)cc3[nH]c(C(=O)N(C)C)cc23)c(Cl)c1` [Example I-1050], the figure is below 100 nM; as for `CNc1ccc(-c2cc(C3=CCCN(C(=O)CCn4ccnn4)C3)cc3cc(C(=O)N(C)C)oc23)c(OC)c1` [Example I-1056], below 100 nM.
